Here are results for eight compounds from patent US8236833B2, “Biphenyl derivatives as modulators of voltage gated ion channels” (Vertex Pharmaceuticals Incorporated, priority 2005, dated 2012).

Each structure is given as a SMILES string. Like-named read-outs stand apart in the source and are kept apart here.

For assay [1], the system named is voltage-gated sodium ion channels. Nature of the assay: Assays for detecting and measuring NaV inhibition properties of compounds (Table 3 activity data; the specific assay and subtype are not stated). Format: cell-based.
For assay [2], the system named is neuropathic pain. To be noted: in vivo; cited from earlier work.
Assay [3] concerns the target NaV1.3 (Homo sapiens, UniProt Q9NY46). To be noted: read-out: TTX IC50; cited from earlier work.
The target in assay [4] is NaV1.6 (Homo sapiens, UniProt Q9UQD0). The following applies: read-out: TTX IC50; cited from earlier work.
Assay [5] addresses NaV1.8 (Homo sapiens, UniProt Q9Y5Y9). To be noted: read-out: TTX IC50; cited from earlier work.
Assay [6] deals with NaV1.9 (Homo sapiens, UniProt Q9UI33). To be noted: read-out: TTX IC50; cited from earlier work.
Assay [7] deals with NaV1.1 (Homo sapiens, UniProt P35498). To be noted: read-out: TTX IC50; cited from earlier work.
Setting [8] is: activity data for selected compounds, NaV subtype not stated, read-out: IC50.

Chain of NaV1.9 (Q9UI33 whole entry, looked up): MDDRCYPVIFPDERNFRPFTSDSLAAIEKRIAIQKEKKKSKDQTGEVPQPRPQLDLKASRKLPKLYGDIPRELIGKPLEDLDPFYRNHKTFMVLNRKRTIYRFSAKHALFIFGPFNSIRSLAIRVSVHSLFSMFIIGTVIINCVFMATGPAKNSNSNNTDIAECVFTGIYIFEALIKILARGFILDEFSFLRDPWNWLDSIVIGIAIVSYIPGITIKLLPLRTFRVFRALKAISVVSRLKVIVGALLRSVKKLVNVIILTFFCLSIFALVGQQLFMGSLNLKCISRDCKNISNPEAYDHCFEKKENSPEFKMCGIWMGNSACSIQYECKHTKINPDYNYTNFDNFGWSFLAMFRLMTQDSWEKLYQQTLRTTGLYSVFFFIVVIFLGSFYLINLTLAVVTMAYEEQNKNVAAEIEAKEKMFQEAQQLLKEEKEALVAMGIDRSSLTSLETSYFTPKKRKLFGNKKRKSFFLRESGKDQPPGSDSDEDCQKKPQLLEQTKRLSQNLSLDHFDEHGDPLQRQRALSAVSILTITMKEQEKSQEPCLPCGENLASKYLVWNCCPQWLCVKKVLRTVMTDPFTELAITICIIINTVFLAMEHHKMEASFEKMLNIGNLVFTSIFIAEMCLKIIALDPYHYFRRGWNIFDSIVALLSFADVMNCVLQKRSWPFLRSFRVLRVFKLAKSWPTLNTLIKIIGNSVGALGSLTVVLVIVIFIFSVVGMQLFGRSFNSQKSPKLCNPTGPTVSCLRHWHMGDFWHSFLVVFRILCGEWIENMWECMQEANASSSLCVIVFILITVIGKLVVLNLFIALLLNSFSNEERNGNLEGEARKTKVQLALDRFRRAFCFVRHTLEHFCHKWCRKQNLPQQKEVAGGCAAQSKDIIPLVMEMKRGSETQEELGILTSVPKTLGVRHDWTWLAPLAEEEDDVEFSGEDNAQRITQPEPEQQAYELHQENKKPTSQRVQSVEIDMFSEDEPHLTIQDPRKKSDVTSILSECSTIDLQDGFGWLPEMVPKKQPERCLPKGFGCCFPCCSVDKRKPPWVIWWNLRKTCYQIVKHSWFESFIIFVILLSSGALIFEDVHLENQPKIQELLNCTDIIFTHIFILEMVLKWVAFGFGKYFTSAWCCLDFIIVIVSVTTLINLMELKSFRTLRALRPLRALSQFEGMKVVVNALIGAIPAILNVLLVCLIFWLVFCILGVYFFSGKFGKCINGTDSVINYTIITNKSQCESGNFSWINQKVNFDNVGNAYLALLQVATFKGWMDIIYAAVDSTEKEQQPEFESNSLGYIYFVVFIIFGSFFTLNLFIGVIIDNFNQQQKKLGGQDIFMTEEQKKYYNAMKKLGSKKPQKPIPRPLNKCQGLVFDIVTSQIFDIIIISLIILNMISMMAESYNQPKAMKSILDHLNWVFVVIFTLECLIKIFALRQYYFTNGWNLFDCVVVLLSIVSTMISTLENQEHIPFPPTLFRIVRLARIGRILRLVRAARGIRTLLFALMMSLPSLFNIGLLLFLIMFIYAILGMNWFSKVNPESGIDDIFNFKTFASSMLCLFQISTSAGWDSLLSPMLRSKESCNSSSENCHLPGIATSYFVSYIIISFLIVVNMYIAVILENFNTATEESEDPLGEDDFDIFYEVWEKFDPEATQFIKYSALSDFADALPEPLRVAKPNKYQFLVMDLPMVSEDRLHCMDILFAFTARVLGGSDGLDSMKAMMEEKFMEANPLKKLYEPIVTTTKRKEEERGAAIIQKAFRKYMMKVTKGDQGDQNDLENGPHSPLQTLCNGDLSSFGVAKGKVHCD
Chain of NaV1.3 (Q9NY46 whole entry, looked up): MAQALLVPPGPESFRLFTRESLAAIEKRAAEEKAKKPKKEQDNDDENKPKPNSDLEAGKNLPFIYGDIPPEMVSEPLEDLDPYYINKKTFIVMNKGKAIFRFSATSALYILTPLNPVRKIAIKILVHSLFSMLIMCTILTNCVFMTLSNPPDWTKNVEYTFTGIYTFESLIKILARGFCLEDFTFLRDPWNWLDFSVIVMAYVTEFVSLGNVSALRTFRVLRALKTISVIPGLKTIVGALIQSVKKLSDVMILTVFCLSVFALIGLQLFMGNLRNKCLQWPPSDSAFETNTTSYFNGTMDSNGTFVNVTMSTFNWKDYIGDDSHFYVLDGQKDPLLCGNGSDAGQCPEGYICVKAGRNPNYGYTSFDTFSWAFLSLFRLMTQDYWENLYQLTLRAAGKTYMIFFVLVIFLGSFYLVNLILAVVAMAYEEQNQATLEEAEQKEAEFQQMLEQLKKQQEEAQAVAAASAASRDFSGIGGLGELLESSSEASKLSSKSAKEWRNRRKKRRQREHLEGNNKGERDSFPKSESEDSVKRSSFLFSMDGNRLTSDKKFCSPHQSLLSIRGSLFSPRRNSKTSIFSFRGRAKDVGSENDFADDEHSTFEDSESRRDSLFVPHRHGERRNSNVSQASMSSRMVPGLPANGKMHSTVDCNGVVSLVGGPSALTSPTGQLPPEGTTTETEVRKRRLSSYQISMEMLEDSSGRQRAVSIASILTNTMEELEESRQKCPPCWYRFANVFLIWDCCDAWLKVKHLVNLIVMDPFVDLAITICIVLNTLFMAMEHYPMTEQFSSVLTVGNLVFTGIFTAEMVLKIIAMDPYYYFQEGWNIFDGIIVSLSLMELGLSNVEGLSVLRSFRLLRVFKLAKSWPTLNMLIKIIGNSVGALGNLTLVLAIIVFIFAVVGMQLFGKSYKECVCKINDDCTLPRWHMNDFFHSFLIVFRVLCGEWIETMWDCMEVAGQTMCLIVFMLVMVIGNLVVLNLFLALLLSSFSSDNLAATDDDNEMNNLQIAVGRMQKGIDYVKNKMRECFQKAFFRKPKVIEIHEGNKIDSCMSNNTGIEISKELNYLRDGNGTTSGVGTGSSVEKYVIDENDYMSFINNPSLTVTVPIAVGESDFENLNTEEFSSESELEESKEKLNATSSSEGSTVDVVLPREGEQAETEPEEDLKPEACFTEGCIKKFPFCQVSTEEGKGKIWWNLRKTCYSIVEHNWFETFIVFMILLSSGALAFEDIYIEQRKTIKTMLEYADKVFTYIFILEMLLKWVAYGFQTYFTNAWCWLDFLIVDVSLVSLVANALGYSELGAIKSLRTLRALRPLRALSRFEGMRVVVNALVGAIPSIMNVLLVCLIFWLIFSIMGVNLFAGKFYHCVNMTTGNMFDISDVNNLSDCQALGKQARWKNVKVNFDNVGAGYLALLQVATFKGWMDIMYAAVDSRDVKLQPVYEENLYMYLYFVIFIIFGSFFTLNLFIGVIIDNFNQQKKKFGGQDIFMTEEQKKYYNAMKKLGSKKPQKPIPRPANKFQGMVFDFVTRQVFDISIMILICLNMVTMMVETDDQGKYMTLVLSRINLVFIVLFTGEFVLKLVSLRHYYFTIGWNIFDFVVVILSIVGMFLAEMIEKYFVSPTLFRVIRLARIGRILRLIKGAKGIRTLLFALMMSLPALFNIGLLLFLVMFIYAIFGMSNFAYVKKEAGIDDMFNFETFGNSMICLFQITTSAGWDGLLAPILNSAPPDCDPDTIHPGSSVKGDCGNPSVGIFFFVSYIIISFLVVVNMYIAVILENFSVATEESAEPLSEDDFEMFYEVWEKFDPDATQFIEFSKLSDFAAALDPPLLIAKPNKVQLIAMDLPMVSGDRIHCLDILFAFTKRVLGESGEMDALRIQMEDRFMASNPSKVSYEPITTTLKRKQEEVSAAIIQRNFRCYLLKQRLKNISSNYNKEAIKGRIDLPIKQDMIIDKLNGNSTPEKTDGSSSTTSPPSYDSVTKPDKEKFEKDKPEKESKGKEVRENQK

In general, IC50 refers to the concentration that gives 50% inhibition. Take `C[C@@H](C(=O)Nc1ccc(-c2ccc(S(=O)(=O)Nc3nccs3)cc2)cc1)n1ccc2c(F)cccc21` [Compound 6, (S)-2-(4-Fluoro-indol-1-yl)-N-[4′-(thiazol-2-ylsulfamoyl)-biphenyl-4-yl]-propionamide]: the IC50 in assay [1] (setting [8]) is below 1000 nM.
Same read-out and setting: the value for `O=C(COc1ccc(Cl)cc1)Nc1ccc(-c2ccc(S(=O)(=O)Nc3nccs3)cc2)cc1` [Compound 1] was 1000 to 5000 nM; that for `O=C(COc1ccnc2c(C(F)(F)F)cccc12)Nc1ccc(-c2ccc(S(=O)(=O)Nc3nccs3)cc2)cc1` [Compound 4, N-[4′-(Thiazol-2-ylsulfamoyl)-biphenyl-4-yl]-2-(8-trifluoromethyl-quinolin-4-yloxy)-acetamide] was above 5000 nM.
Regarding `NCC1(CC(=O)O)CCCCC1` [Gabapentin], the “share of patients in which it works” value in assay [2] is 60%.
Consider `NC1=N[C@H](O)[C@H]2[C@H]3O[C@]4(O)O[C@@H]([C@@H](O)[C@@]2(N1)[C@@H]4O)[C@]3(O)CO` [TTX, tetrodotoxin], for which the IC50 in assay [3] is 15 nM; in assay [4], 6 nM; in assay [5] it was above 50000 nM; in assay [6], 1000 nM; in assay [7], 10 nM.
In assay [1], `COc1cccc(CC(=O)Nc2ccc(-c3ccc(S(=O)(=O)Nc4nccs4)cc3)cc2)c1` [Compound 2] registered an IC50 above 5000 nM.
For `O=C(COc1cccc(Cl)c1)Nc1ccc(-c2ccc(S(=O)(=O)Nc3nccs3)cc2)cc1` [Compound 5, 2-(3-Chloro-phenoxy)-N-[4′-(thiazol-2-ylsulfamoyl)-biphenyl-4-yl]-acetamide], the IC50 in assay [1] (setting [8]) was in the range of 1000 to 5000 nM.
Turning to `O=C(Nc1ccc(-c2ccc(S(=O)(=O)Nc3nccs3)cc2)cc1)c1ccccc1F` [Compound 3], in assay [1], the 50% inhibitory concentration (IC50) is 1000 to 5000 nM.
